System: mRNA expression in peripheral blood of individuals with DMD
Assay: Whole-blood gene expression microarray: DMD administered deflazacort vs DMD administered prednisone
Format: in vivo, human
Details: for p-value / p-value (t-test, deflazacort vs. prednisone) / p-value (t-test, deflazacort vs prednisone): deflazacort vs. prednisone
Experimental: Fifteen ml of blood was collected from each individual into 6 PAXgene® Vacutainer® tubes (PreAnalytiX, Germany) by antecubital fossa venipuncture. PAXgene® tubes contain a proprietary reagent that immediately stabilizes RNA, thus reducing RNA degradation and minimizing gene expression changes following phlebotomy. The tubes were then inverted 20 times, then remained undisturbed for 2 h at room temperature (about 19° C. to about 22° C.), and then stored at -70° C. until processed. Total RNA was isolated using the Paxgene® blood RNA kit (PreAnalytiX, Germany) according to the manufacturers instructions. The RNA isolated is from all cells in whole blood. Typical yields of total RNA isolated from about 7.5 ml of human whole blood were between 10 μg RNA and 40 μg RNA. RNA quality and purity was analyzed by spectrophotometry using the Nanodrop ND-1000, and RNA integrity was analyzed using the Agilent 2100 Bioanalyzer. […] Sample labeling, hybridization to chips, and image scanning were performed using standard Affymetrix protocols. For each whole blood sample from control individuals and individuals with DMD, total RNA was labeled using the One-Cycle Target Labeling protocol and hybridized to the arrays. […] Double-stranded cDNA synthesis, biotin-labeled cRNA synthesis, and cRNA fragmentation were performed according to the Affymetrix GeneChip Eukaryotic Expression Analysis protocol. The labeled, fragmented cRNA (15 μg) was hybridized at 45° C. overnight. After hybridization, the array was washed and stained. The arrays were scanned with an argon-ion laser at λ=570 nm, with a resolution of 3 μm/pixel (Affymetrix, Inc.). After scanning the array, the raw probe level values for each probe were saved in Affymetrix.cel files. […] Statistical analyses, including t-test analyses, unsupervised hierarchical clustering, and principal component analyses were conducted using Genespring 7.2 software ([…]® 7, Silicon Genetics, Redwood City Calif.). […] Corrections for multiple comparisons used a Benjamini-Hochberg False Discovery Rate (FDR) of 0.05, disclosed in Tang et al., J Cereb Blood Flow Metab 26 (2006) 1089, which is expressly incorporated by reference herein in its entirety. […] Sample processing and array hybridization, probe-level data analysis, and statistical analysis were identical to Example 1.

CC(=O)OCC(=O)[C@@]12N=C(C)O[C@@H]1C[C@H]1[C@@H]3CCC4=CC(=O)C=C[C@]4(C)[C@H]3[C@@H](O)C[C@@]12C [deflazacort]
expression of retinoic acid receptor α (RARa) (deflazacort compared to prednisone, blood): significantly up-regulated
p-value (AA100891, Nucleic Acid No. 2100): 0.0498
p-value (AA534416, Nucleic Acid No. 2105): 0.0123
p-value (t-test, deflazacort vs. prednisone) (AA679303, Nucleic Acid No. 2067): 0.0185
p-value (AA702409, Nucleic Acid No. 2116): 0.0453
p-value (t-test, deflazacort vs. prednisone) (AA789296, Nucleic Acid No. 2010): 0.0291
p-value (t-test, deflazacort vs. prednisone) (AA830854, Nucleic Acid No. 1325): 0.0452
p-value (t-test, deflazacort vs prednisone) (AB023216, Nucleic Acid No. 2081): 0.00521
p-value (t-test, deflazacort vs prednisone) (AB033106, Nucleic Acid No. 2083): 0.0446
p-value (AF005774, Nucleic Acid No. 1945): 0.0104
p-value (AF009616, Nucleic Acid No. 1950): 0.0293
p-value (AF009619, Nucleic Acid No. 1943): 0.0064
p-value (AF015451, Nucleic Acid No. 1946): 0.0107
p-value (AF041459, Nucleic Acid No. 1944): 0.00822
p-value (AF041461, Nucleic Acid No. 1947): 0.013
p-value (AF075067, Nucleic Acid No. 2112): 0.0376
p-value (AF083208, Nucleic Acid No. 1892): 0.00348
p-value (t-test, deflazacort vs prednisone) (AF098114, Nucleic Acid No. 2069): 0.0202
p-value (AF147300, Nucleic Acid No. 1995): 0.0271
p-value (t-test, deflazacort vs prednisone) (AF207547, Nucleic Acid No. 2088): 0.00744
p-value (AF285167, Nucleic Acid No. 1894): 0.0117
p-value (AF313468, Nucleic Acid No. 1956): 0.0435
p-value (AF400600, Nucleic Acid No. 1955): 0.0263
p-value (AF400602, Nucleic Acid No. 1954): 0.0148
p-value (t-test, deflazacort vs prednisone) (AF499918, Nucleic Acid No. 2091): 0.0369
p-value (t-test, deflazacort vs. prednisone) (AI017983, Nucleic Acid No. 1338): 0.0323
p-value (t-test, deflazacort vs. prednisone) (AI056689, Nucleic Acid No. 2031): 0.043
p-value (t-test, deflazacort vs prednisone) (AI080505, Nucleic Acid No. 2099): 0.0412
p-value (AI091372, Nucleic Acid No. 1918): 0.00592
p-value (AI093231, Nucleic Acid No. 1906): 0.0085
p-value (t-test, deflazacort vs. prednisone) (AI250910, Nucleic Acid No. 2014): 0.0029
p-value (AI342146, Nucleic Acid No. 1905): 0.048
p-value (t-test, deflazacort vs. prednisone) (AI393727, Nucleic Acid No. 2034): 0.0345
p-value (AI436803, Nucleic Acid No. 1916): 0.00828
p-value (t-test, deflazacort vs prednisone) (AI535735, Nucleic Acid No. 2089): 0.0426
p-value (t-test, deflazacort vs. prednisone) (AI608725, Nucleic Acid No. 2053): 6.16E−05
p-value (AI651726, Nucleic Acid No. 2119): 0.0107
p-value (AI670862, Nucleic Acid No. 2017): 0.0109
p-value (t-test, deflazacort vs. prednisone) (AI719730, Nucleic Acid No. 2039): 0.00281
p-value (AI762695, Nucleic Acid No. 1996): 0.032
p-value (AI768497, Nucleic Acid No. 1910): 0.0137
p-value (t-test, deflazacort vs prednisone) (AI814925, Nucleic Acid No. 2072): 0.0422
p-value (t-test, deflazacort vs prednisone) (AI830331, Nucleic Acid No. 2075): 0.0149
p-value (t-test, deflazacort vs. prednisone) (AI830490, Nucleic Acid No. 2028): 0.0146
p-value (AI860150, Nucleic Acid No. 2018): 0.026
p-value (AI862537, Nucleic Acid No. 2118): 0.0333
p-value (t-test, deflazacort vs. prednisone) (AI868267, Nucleic Acid No. 1444): 0.0285
p-value (t-test, deflazacort vs. prednisone) (AI906424, Nucleic Acid No. 2044): 0.0287
p-value (t-test, deflazacort vs. prednisone) (AI926544, Nucleic Acid No. 2054): 0.0136
p-value (AI985590, Nucleic Acid No. 1901): 0.0389
p-value (AJ422148, Nucleic Acid No. 2104): 0.026
p-value (AK000119, Nucleic Acid No. 2121): 0.0375
p-value (t-test, deflazacort vs. prednisone) (AK023348, Nucleic Acid No. 2037): 0.0274
p-value (AK024677, Nucleic Acid No. 1915): 0.00386
p-value (t-test, deflazacort vs. prednisone) (AK024911, Nucleic Acid No. 2045): 0.0429
p-value (AK025217, Nucleic Acid No. 1997): 0.0404
p-value (t-test, deflazacort vs. prednisone) (AK074686, Nucleic Acid No. 2042): 0.0406
p-value (AK090660, Nucleic Acid No. 2080): 0.0288
p-value (t-test, deflazacort vs. prednisone) (AK092709, Nucleic Acid No. 2013): 0.0392
p-value (AL021977, Nucleic Acid No. 2110): 0.0121
p-value (AL049250, Nucleic Acid No. 2101): 0.0486
p-value (t-test, deflazacort vs. prednisone) (AL049273, Nucleic Acid No. 1402): 0.0448
p-value (t-test, deflazacort vs prednisone) (AL137645, Nucleic Acid No. 906): 0.0416
p-value (t-test, deflazacort vs. prednisone) (AL832727, Nucleic Acid No. 2022): 0.0334
p-value (AL833448, Nucleic Acid No. 2084): 0.0326
p-value (AU145206, Nucleic Acid No. 1909): 0.046
p-value (AU158358, Nucleic Acid No. 1897): 0.0325
p-value (AV700030, Nucleic Acid No. 2063): 0.0254
p-value (AV722693, Nucleic Acid No. 1994): 0.000689
p-value (AW070431, Nucleic Acid No. 2113): 0.0198
p-value (t-test, deflazacort vs. prednisone) (AW081561, Nucleic Acid No. 2012): 0.0484
p-value (AW135013, Nucleic Acid No. 2109): 0.0166
p-value (t-test, deflazacort vs. prednisone) (AW504458, Nucleic Acid No. 2032): 0.0109
p-value (t-test, deflazacort vs prednisone) (AW590838, Nucleic Acid No. 2082): 0.0481
p-value (t-test, deflazacort vs. prednisone) (AW978350, Nucleic Acid No. 2027): 0.0388
p-value (BC001152, Nucleic Acid No. 2025): 0.0219
p-value (t-test, deflazacort vs. prednisone) (BC003542, Nucleic Acid No. 2048): 0.00709
p-value (BC006230, Nucleic Acid No. 2123): 0.0131
p-value (BC006454, Nucleic Acid No. 1650): 0.0101
p-value (t-test, deflazacort vs. prednisone) (BC012090, Nucleic Acid No. 2043): 0.0289
p-value (BC017896, Nucleic Acid No. 487): 0.0133
p-value (t-test, deflazacort vs. prednisone) (BC025237, Nucleic Acid No. 2047): 0.0274
p-value (t-test, deflazacort vs. prednisone) (BC039454, Nucleic Acid No. 2011): 0.0311
p-value (BC042832, Nucleic Acid No. 2103): 0.0214
p-value (t-test, deflazacort vs prednisone) (BC043187, Nucleic Acid No. 2073): 0.0446
p-value (BE207758, Nucleic Acid No. 1913): 0.00136
p-value (BE348688, Nucleic Acid No. 1904): 0.0249
p-value (BE439987, Nucleic Acid No. 1711): 0.0106
p-value (BE465380, Nucleic Acid No. 1911): 0.0346
p-value (BE550881, Nucleic Acid No. 2102): 0.0423
p-value (t-test, deflazacort vs. prednisone) (BE563442, Nucleic Acid No. 2062): 0.00559
p-value (BE727883, Nucleic Acid No. 2120): 0.0383
p-value (t-test, deflazacort vs. prednisone) (BE880245, Nucleic Acid No. 2033): 0.00733
p-value (t-test, deflazacort vs prednisone) (BE964989, Nucleic Acid No. 2085): 0.0484
p-value (t-test, deflazacort vs. prednisone) (BF338947, Nucleic Acid No. 2056): 0.0148
p-value (BF477544, Nucleic Acid No. 1895): 0.0499
p-value (t-test, deflazacort vs prednisone) (BF514079, Nucleic Acid No. 1363): 0.0432
p-value (BF575213, Nucleic Acid No. 2122): 0.00608
p-value (t-test, deflazacort vs. prednisone) (BF694956, Nucleic Acid No. 2041): 0.0262
p-value (t-test, deflazacort vs prednisone) (BG029530, Nucleic Acid No. 2074): 0.000753
p-value (t-test, deflazacort vs prednisone) (BG249565, Nucleic Acid No. 2087): 0.00518
p-value (D87291, Nucleic Acid No. 2077): 0.0322
p-value (H12280, Nucleic Acid No. 2098): 0.038
p-value (L18865, Nucleic Acid No. 2114): 0.034
p-value (t-test, deflazacort vs. prednisone) (M15330, Nucleic Acid No. 2060): 0.0137
p-value (t-test, deflazacort vs prednisone) (M35999, Nucleic Acid No. 2071): 0.014
p-value (t-test, deflazacort vs. prednisone) (M60626, Nucleic Acid No. 2020): 0.0333
p-value (N36408, Nucleic Acid No. 2019): 0.0384
p-value (N59653, Nucleic Acid No. 1900): 0.044
p-value (t-test, deflazacort vs prednisone) (N66633, Nucleic Acid No. 2090): 0.0434
p-value (t-test, deflazacort vs. prednisone) (NM_000404, Nucleic Acid No. 2029): 0.000522
p-value (t-test, deflazacort vs prednisone) (NM_000419, Nucleic Acid No. 2070): 0.0421
p-value (NM_000484, Nucleic Acid No. 1261): 0.00856
p-value (NM_000565, Nucleic Acid No. 2064): 0.0489
p-value (t-test, deflazacort vs. prednisone) (NM_000576, Nucleic Acid No. 2059): 0.00127
p-value (NM_001109, Nucleic Acid No. 1899): 0.0468
p-value (NM_001154, Nucleic Acid No. 1902): 0.0116
p-value (t-test, deflazacort vs. prednisone) (NM_001456, Nucleic Acid No. 2015): 0.0172
p-value (t-test, deflazacort vs. prednisone) (NM_001553, Nucleic Acid No. 2057): 0.0297
p-value (t-test, deflazacort vs. prednisone) (NM_001557, Nucleic Acid No. 2065): 0.0421
p-value (NM_001637, Nucleic Acid No. 1903): 0.0269
p-value (NM_001659, Nucleic Acid No. 1908): 0.00749
p-value (NM_001690, Nucleic Acid No. 1917): 0.021
p-value (t-test, deflazacort vs. prednisone) (NM_002068, Nucleic Acid No. 2030): 0.00544
p-value (t-test, deflazacort vs. prednisone) (NM_002087, Nucleic Acid No. 2038): 0.0294
p-value (t-test, deflazacort vs. prednisone) (NM_002110, Nucleic Acid No. 2040): 0.0352
p-value (t-test, deflazacort vs. prednisone) (NM_002155, Nucleic Acid No. 2049): 0.0206
p-value (t-test, deflazacort vs prednisone) (NM_002199, Nucleic Acid No. 2068): 0.0118
p-value (t-test, deflazacort vs prednisone) (NM_002229, Nucleic Acid No. 2076): 0.0299
p-value (NM_003644, Nucleic Acid No. 2023): 0.00498
p-value (NM_003879, Nucleic Acid No. 1948): 0.0159
p-value (NM_004041, Nucleic Acid No. 1914): 0.0324
p-value (t-test, deflazacort vs. prednisone) (NM_004517, Nucleic Acid No. 2066): 0.0161
p-value (NM_004735, Nucleic Acid No. 2106): 0.0293
